Results as given in patent publication US6376497B1, “Antifungal azole derivatives having a fluorinated vinyl group and process for preparing same” (Korea Research Institute of Chemical Technology, priority 1999, dated 2002).

How the values were obtained:
Assay in all cases: In vitro antifungal activity, microbroth dilution MIC
Assay type in all cases: cell-based
Candida albicans C1-2 = conditions: C. albicans C1-2, RPMI-1640, 35° C., 4 to 48 hours
Method: (§1) In vitro antifungal activities of the inventive antifungal compounds were evaluated using the test strains shown in Table VIII by the following microbroth dilution method which is a modified version of the procedure recommended by National Committee for Clinical Laboratory Standards(see National Committee for Clinical Laboratory Standards, 1992, Reference methods for broth dilution antifungal susceptibility testing of yeasts, Proposed standard M27-P, National Committee for clinical laboratory standards, Villanova, Pa; and National Committee for Clinical Laboratory Standards, 1995, Reference methods for broth dilution antifungal susceptibility testing of yeasts. Tentative standard M27-T, National Committee for clinical laboratory standards, Villanova, Pa).
(§2) Sabourad Dextrose Agar(Difco) was used as a culture medium, and RPMI-1640 broth(Sigma. Co. w/L-glutamine, wo/NaHCO3)(0.165 M MOPS, pH 7.0), as a dilution medium.
(§3) Each of the test strains were subcultured in Sabourad Dextrose Agar medium twice and a stain sample was taken from prominent colonies and suspended in sterile physiological saline solution in a cap tube. The turbidity of the suspension was adjusted to that of the Mcfarland 0.5 standard sample(approximately 10^6 CFU/ml). Then the suspension was diluted 500-fold with sterile RPMI-1640 liquid medium to 2×10^3 CFU/ml.
(§4) Each of the test compounds(the compounds obtained in Examples 1 to 150 and comparative compounds, i.e., fluconazole(FCZ) and itraconazole (ICZ)), was dissolved in DMSO to give a stock solution having a concentration of 4000 μg/ml and the stock solution was successively diluted to obtain test solutions having test compound concentrations of 200, 100, 50, 25, 12.5, 6.25, 3.13, 1.56, 0.78, 0.39, 0.20 and 0.10 μg/ml, respectively.
(§5) 0.1 ml portion of the test solutions were added to the wells of a sterile 96 well plate. Then, 0.1 ml portion of each of the test strain solutions were added successively to the wells and the plate was incubated at 35° C. for 4 to 48 hours.
(§6) Minimal inhibitory concentration(MIC) of each compound was defined as the concentration of the test compound where no growth of the strain could be observed.

[1] = test system: Candida parapsitosis A. 7330; conditions: C. parapsitosis A. 7330, RPMI-1640, 35° C., 4 to 48 hours
Method: as §1, §2, §3, §4, §5, §6

[2] = test system: Candida albicans A. 10231; conditions: C. albicans A. 10231, RPMI-1640, 35° C., 4 to 48 hours
Method: as §1, §2, §3, §4, §5, §6

[3] = test system: Aspergillus furnigatus B. 19119; conditions: A furnigatus B. 19119, RPMI-1640, 35° C., 4 to 48 hours
Method: as §1, §2, §3, §4, §5, §6

[4] = test system: Trichophyton mentagrophytes B. 32663; conditions: T. mentagrophytes B. 32663, RPMI-1640, 35° C., 4 to 48 hours
Method: as §1, §2, §3, §4, §5, §6

[5] = test system: Cryptococcus neoformans B. 42419; conditions: Cry. neoformans B. 42419, RPMI-1640, 35° C., 4 to 48 hours
Method: as §1, §2, §3, §4, §5, §6

[6] = test system: Aspergillus niger A. 16404; conditions: A. niger A. 16404, RPMI-1640, 35° C., 4 to 48 hours
Method: as §1, §2, §3, §4, §5, §6

[7] = test system: Torulopsis glabrata B. 16205; conditions: T. glabrata B. 16205, RPMI-1640, 35° C., 4 to 48 hours
Method: as §1, §2, §3, §4, §5, §6

[8] = test system: Cryptococcus neoformans A. 34144; conditions: Cry. neoformans A. 34144, RPMI-1640, 35° C., 4 to 48 hours
Method: as §1, §2, §3, §4, §5, §6

[9] = test system: Trichophyton mentagrophytes A. 9129; conditions: T. mentagrophytes A. 9129, RPMI-1640, 35° C., 4 to 48 hours
Method: as §1, §2, §3, §4, §5, §6

Candida krusei K. 11655 = conditions: C. krusei K. 11655, RPMI-1640, 35° C., 4 to 48 hours
Method: as §1, §2, §3, §4, §5, §6

[10] = test system: Candida albicans IFO. 1385; conditions: C. albicans IFO. 1385, RPMI-1640, 35° C., 4 to 48 hours
Method: as §1, §2, §3, §4, §5, §6

[11] = test system: Candida tropicalis A. 13803; conditions: C. tropicalis A. 13803, RPMI-1640, 35° C., 4 to 48 hours
Method: as §1, §2, §3, §4, §5, §6

[12] = test system: Candida pseudotropicalis K. 11658; conditions: C. pseudotropicalis K. 11658, RPMI-1640, 35° C., 4 to 48 hours
Method: as §1, §2, §3, §4, §5, §6

[13] = test system: Cryptococcus neoformans IFM. 40092; conditions: Cry. neoformans IFM. 40092, RPMI-1640, 35° C., 4 to 48 hours
Method: as §1, §2, §3, §4, §5, §6

Minimal inhibitory concentration (MIC) (Candida albicans C1-2)	Minimal inhibitory concentration (MIC) [1]	Minimal inhibitory concentration (MIC) [2]	Minimal inhibitory concentration (MIC) [3]	Minimal inhibitory concentration (MIC) [4]	Minimal inhibitory concentration (MIC) [5]	Minimal inhibitory concentration (MIC) [6]	Minimal inhibitory concentration (MIC) [7]	Minimal inhibitory concentration (MIC) [8]	Minimal inhibitory concentration (MIC) [9]	Minimal inhibitory concentration (MIC) (Candida krusei K. 11655)	Minimal inhibitory concentration (MIC) [10]	Minimal inhibitory concentration (MIC) [11]	Minimal inhibitory concentration (MIC) [12]	Minimal inhibitory concentration (MIC) [13]	Structure (SMILES)
25.0 µg/mL	>100 µg/mL	25.0 µg/mL	>100 µg/mL	25.0 µg/mL	6.25 µg/mL	>100 µg/mL	6.25 µg/mL	3.13 µg/mL	50.0 µg/mL	>100 µg/mL	3.13 µg/mL	>100 µg/mL	>100 µg/mL	0.78 µg/mL	Cc1cccc(C=C(F)OCC2COC(Cn3ccnc3)(c3ccc(F)cc3F)O2)c1 (mixture of isomers) [Ex. 37]
12.5 µg/mL	12.5 µg/mL	12.5 µg/mL	12.5 µg/mL	1.56 µg/mL	1.56 µg/mL	50.0 µg/mL	6.25 µg/mL	1.56 µg/mL	6.25 µg/mL	25.0 µg/mL	0.39 µg/mL	25.0 µg/mL	12.5 µg/mL	0.20 µg/mL	Cc1ccc(C=C(F)OCC2COC(Cn3ccnc3)(c3ccc(F)cc3F)O2)cc1 (mixture of isomers) [Ex. 38]
12.5 µg/mL	12.5 µg/mL	12.5 µg/mL	12.5 µg/mL	1.56 µg/mL	1.56 µg/mL	50.0 µg/mL	6.25 µg/mL	1.56 µg/mL	6.25 µg/mL	25.0 µg/mL	0.39 µg/mL	25.0 µg/mL	12.5 µg/mL	0.20 µg/mL	CCc1ccc(C=C(F)OCC2COC(Cn3ccnc3)(c3ccc(F)cc3F)O2)cc1 (mixture of isomers) [Ex. 39]
12.5 µg/mL	25.0 µg/mL	12.5 µg/mL	12.5 µg/mL	1.56 µg/mL	1.56 µg/mL	25.0 µg/mL	6.25 µg/mL	1.56 µg/mL	6.25 µg/mL	25.0 µg/mL	0.78 µg/mL	25.0 µg/mL	25.0 µg/mL	0.20 µg/mL	Cc1ccc(C=C(F)OCC2COC(Cn3ccnc3)(c3ccc(F)cc3F)O2)cc1C (mixture of isomers) [Ex. 40]
